Test results from patent US9938301B2, “Dihydropyrimido fused ring derivative as HBV inhibitor” (QILU PHARMACEUTICAL CO., LTD., priority 2014, dated 2018).
pEC50: −log10 of the molar value. Read-outs that look alike come from different tables or passages of the source.

Test system: HBV DNA in HepG2.2.15 cells
Test: HBV in vitro dot-blot hybridization test
Format: cell-based, Hepatitis B virus
Conditions: Hepatitis B virus
Description: • 1. Purpose of the test: • The content of HBV DNA in HepG2.2.15 cells was detected by dot-blot hybridization test to evaluate an inhibitory action of the compound on HBV with an EC50 value as an indicator. • 2. Experimental materials: • 2.1 Cell lines: HepG2.2.15 Cells • HepG2.2.15 cell culture media (DMEM/F12, Invitrogen-11330057; 10% serum Invitrogen-10099141; 100 units/mL Penicillin and 10 μg/mL Streptomycin, Invitrogen-15140122; 1% non-essential amino acid, Invitrogen-11140076; 2 mM L-GLUTAMINE, Invitrogen-25030081; 300 µg/ml Geneticin, Invitrogen-10131027 • 2.2 Reagents: • Trypsin (I Invitrogen-25300062) • DPBS (Hyclone-SH30028.01B) • DMSO (Sigma-D2650-100ML) • 96-well cell-culture plate (Corning-3599) • CO2 incubator (HERA-CELL-240) • 20×SSC (Bio-serve Co. Ltd) • Tris-HCl (Aldirch-154563-1KG) • NaOH (Sinopharm 10019718) • NaCl (Sinopharm 10019308) • Hybridization solution (Major BioTech Co. Ltd, IMMUNE GOLD-HYB-500) • DIG Wash and Block Buffer set (Roche-11585762001) • Anti-digoxigenin-AP, Fab fragments from sheep (Roche-11093274910) • 2.3 Materials and Instruments: • Positively-Charged Nylon Membrane (GE-RPN2250B) • Transfer Membrane Instrument (Bio-Rad, 170-6545) • Hybridization Oven (HL-2000 Hybrilinker) • 3. Testing steps and Methods: • 3.1 HepG2.2.15 cells (4×10^4 cells/well) were planted into a 96-well plate, and at 37° C., 5% CO2 cultured overnight. • 3.2 On Day 2, the compounds were diluted in totally 6 concentrations with a dilution gradient of five times. The compounds at different concentrations were added into the culture wells in duplicate. The final concentration of DMSO in the culture media was 1%. 1 μM GLS4 was used as 100% inhibition control; 1% DMSO as 0% inhibition control. • 3.3 On Day 5, replacing with the fresh culture media containing the compound was performed. • 3.4 On Day 8 and Day 9, the culture media in the culture wells was removed, and the cells were harvested for dot-blot hybridization. • The lysate was added into a culture well, and at 37° C. incubating for half an hour to disintegrate cells; the supernatant was obtained by centrifugation and transferred into a new microplate; a denaturation solution was added, after sufficient mixing the denatured sample was transferred and imprinted onto a Nylon membrane, the nucleic acid was fixed onto the membrane by UV cross-linking. • Pre-hybridization: the membrane was incubated at 60° C. in a hybridization solution for 1 hour. • Hybridization: heating the denatured digoxin-labelled HBV DNA probe and incubating at 60° C. overnight. • Membrane Washing: performing high strigency washing twice, low strigency washing for 3 times. • Blocking: incubating the membrane at room temperature in a blocking solution for 30-60 minutes. • Hybridization: diluting the Antibody Solution with the blocking solution, in which the membrane was placed and incubated at room temperature for 30-60 minutes. • Developing: washing the membrane in a Detection Buffer for 5 minutes, followed by adding a developing solution, pressing and exposing. • The photos was saved in tiff format, and a gray value of the dot was quantified with quantity one software. • 3.5 Data Analysis: • 3.5.1 The inhibition percentage was calculated: % Inh.=[1−(sample dot gray value−1 μM GLS4 dot gray value 1)/(DMSO control dot gray value−1 μM GLS4 dot gray value 1)]×100. • 3.5.2 Calculating EC50: the concentration of the compound for 50% inhibition of HBV (EC50) was calculated by using GraphPad Prism Software. • 4.

[1] = HepG2.2.15, dot-blot hybridization assay, read-out: Concentration for 50% inhibition of HBV (EC50)value
[2] = HepG2.2.15, summary list of target compounds, Examples 1-165 (same as Table 2), read-out: BIOACTIVITY (inhibitory actions on HBV DNA, EC50)

Row | Compound | pEC50 [1] | pEC50 [2]
1 | CCOC(=O)C1=C2C[C@H](NS(=O)(=O)C3CC3)CN2C(c2nccs2)=N[C@H]1c1ccc(F)cc1Br [Example 62] | > 7.00 | > 7.00
2 | CCOC(=O)C1=C2CC(NS(=O)(=O)C(F)(F)F)CN2C(c2nccs2)=N[C@H]1c1ccc(F)cc1Br (stereo partly shown) [Example 63] | 6.30 to 7.00 | 6.30 to 7.00
3 | CCOC(=O)C1=C2C[C@H](NS(=O)(=O)C(F)(F)F)CN2C(c2nccs2)=N[C@H]1c1ccc(F)cc1Br [Example 64] | 6.30 to 7.00 | 6.30 to 7.00
4 | CCOC(=O)C1=C2C[C@@H](N3CCOC3=O)CN2C(c2nccs2)=N[C@H]1c1ccc(F)cc1Br [Example 65] | 6.30 to 7.00 | 6.30 to 7.00
5 | CCOC(=O)C1=C2C[C@H](N3CCOC3=O)CN2C(c2nccs2)=N[C@H]1c1ccc(F)cc1Br [Example 66] | 6.30 to 7.00 | 6.30 to 7.00
6 | CCOC(=O)C1=C2CN(C(=O)OCC)CCN2C(c2nccs2)=NC1c1ccc(F)cc1Br (stereo not shown) [Example 82] | 6.30 to 7.00 | 6.30 to 7.00
7 | CCOC(=O)C1=C2CN(S(=O)(=O)NC)CCN2C(c2nccs2)=N[C@H]1c1ccc(F)cc1Br [Example 84] | 6.30 to 7.00 | 6.30 to 7.00
8 | CCOC(=O)C1=C2CN(C(=O)OC)CCN2C(c2nccs2)=N[C@H]1c1ccc(F)cc1Br [Example 85] | 6.30 to 7.00 | 6.30 to 7.00
9 | CCOC(=O)C1=C2CN(C(=O)NC)CCN2C(c2nccs2)=N[C@H]1c1ccc(F)cc1Br [Example 88] | 6.00 to 6.30 | 6.00 to 6.30
10 | CCOC(=O)C1=C2CN(C(=O)CN)CCN2C(c2nccs2)=N[C@H]1c1ccc(F)cc1Br [Example 89] | 5.30 to 6.00 | 5.30 to 6.00
11 | CCOC(=O)C1=C2CN(C(=O)C3(C)COC3)CCN2C(c2nccs2)=N[C@H]1c1ccc(F)cc1Br [Example 90] | 6.30 to 7.00 | 6.30 to 7.00
12 | CCOC(=O)C1=C2CN(C(=O)C3CC3)CCN2C(c2nccs2)=N[C@H]1c1ccc(F)cc1Br [Example 91] | 6.30 to 7.00 | 6.30 to 7.00
13 | CCOC(=O)C1=C2CN(C(=O)C(C)C)CCN2C(c2nccs2)=N[C@H]1c1ccc(F)cc1Br [Example 92] | > 7.00 | > 7.00
14 | CCOC(=O)C1=C2CN(S(=O)(=O)C3CC3)CCN2C(c2nccs2)=N[C@H]1c1ccc(F)cc1Br [Example 93] | 6.30 to 7.00 | 6.30 to 7.00
15 | CCOC(=O)C1=C2CN(Cc3cc(C)on3)CCN2C(c2nccs2)=N[C@H]1c1ccc(F)cc1Br [Example 94] | 5.30 to 6.00 | 5.30 to 6.00
16 | CCOC(=O)C1=C2CN(CC(=O)OC)CCN2C(c2nccs2)=N[C@H]1c1ccc(F)cc1Br [Example 98] | 5.30 to 6.00 | 5.30 to 6.00
17 | CCOC(=O)C1=C2CN(CC(=O)O)CCN2C(c2nccs2)=N[C@H]1c1ccc(F)cc1Br [Example 99] | 5.30 to 6.00 | 5.30 to 6.00
18 | CCOC(=O)C1=C2CN(Cc3cocn3)CCN2C(c2nccs2)=NC1c1ccc(F)cc1Br (stereo not shown) [Example 100] | 5.30 to 6.00 | 5.30 to 6.00
19 | CCOC(=O)C1=C2CN(C#N)CCN2C(c2nccs2)=N[C@H]1c1ccc(F)cc1Br [Example 101] | 6.00 to 6.30 | 6.00 to 6.30
20 | CCOC(=O)C1=C2CN(C3COC3)CCN2C(c2nccs2)=N[C@H]1c1ccc(F)cc1Br [Example 102] | 6.00 to 6.30 | 6.00 to 6.30
21 | CCNC(=S)N1CCN2C(c3nccs3)=N[C@@H](c3ccc(F)cc3Br)C(C(=O)OCC)=C2C1 [Example 103] | 6.30 to 7.00 | 6.30 to 7.00
22 | CCOC(=O)C1=C2CN(CC(=O)OC)C(=O)CN2C(c2nccs2)=N[C@H]1c1ccc(F)cc1Br [Example 106] | 5.30 to 6.00 | 5.30 to 6.00

Row | Compound | pEC50 [1] | pEC50 [2]
23 | CCOC(=O)C1=C2C[C@@H](CS(C)(=O)=O)CN2C(c2nccs2)=N[C@H]1c1ccc(F)cc1Br [Example 113] | 6.30 to 7.00 | 6.30 to 7.00
24 | CCOC(=O)C1=C2C[C@H](CS(C)(=O)=O)CN2C(c2nccs2)=N[C@H]1c1ccc(F)cc1Br [Example 114] | 6.30 to 7.00 | 6.30 to 7.00
25 | CCOC(=O)C1=C2CN(Cc3ccc(OC)cc3)C[C@@H](C(=O)OC)N2C(c2nccs2)=N[C@H]1c1ccc(F)cc1Br [Example 115] | 6.30 to 7.00 | 6.30 to 7.00
26 | CCOC(=O)C1=C2C[C@@H](NS(=O)(=O)C(C)C)CN2C(c2nccs2)=N[C@H]1c1ccc(F)cc1Br [Example 116] | > 7.00 | > 7.00
27 | CCOC(=O)C1=C2C[C@H](NS(=O)(=O)C(C)C)CN2C(c2nccs2)=N[C@H]1c1ccc(F)cc1Br [Example 117] | > 7.00 | > 7.00
28 | CCOC(=O)C1=C2CN(C(=O)C3COC3)CCN2C(c2nccs2)=N[C@H]1c1ccc(F)cc1Br [Example 118] | 6.30 to 7.00 | 6.30 to 7.00
29 | CCOC(=O)C1=C2C[C@@H](CNC(C)=O)CN2C(c2nccs2)=N[C@H]1c1ccc(F)cc1Br [Example 119] | > 7.00 | > 7.00
30 | CCOC(=O)C1=C2C[C@H](CNC(C)=O)CN2C(c2nccs2)=N[C@H]1c1ccc(F)cc1Br [Example 120] | > 7.00 | > 7.00
31 | CCOC(=O)C1=C2C[C@H](CNS(=O)(=O)C3CC3)CN2C(c2nccs2)=N[C@H]1c1ccc(F)cc1Br [Example 121] | > 7.00 | > 7.00
32 | CCOC(=O)C1=C2C[C@@H](CNS(=O)(=O)C3CC3)CN2C(c2nccs2)=N[C@H]1c1ccc(F)cc1Br [Example 122] | 5.30 to 6.00 | 5.30 to 6.00
33 | CCOC(=O)C1=C2C[C@@H](NS(=O)(=O)C(F)F)CN2C(c2nccs2)=N[C@H]1c1ccc(F)cc1Br [Example 123] | > 7.00 | > 7.00
34 | CCOC(=O)C1=C2C[C@H](NS(=O)(=O)C(F)F)CN2C(c2nccs2)=N[C@H]1c1ccc(F)cc1Br [Example 124] | > 7.00 | > 7.00
35 | CCOC(=O)C1=C2C[C@H](NS(C)(=O)=O)CN2C(c2nccs2)=N[C@H]1c1ccc(F)cc1Cl [Example 125] | > 7.00 | > 7.00
36 | CCOC(=O)C1=C2C[C@@H](NS(C)(=O)=O)CN2C(c2nccs2)=N[C@H]1c1ccc(F)cc1Cl [Example 126] | > 7.00 | > 7.00
37 | CCOC(=O)C1=C2C[C@@H](N(C)S(C)(=O)=O)CN2C(c2nccs2)=N[C@H]1c1ccc(F)cc1Br [Example 127] | > 7.00 | > 7.00
38 | CCOC(=O)C1=C2C[C@H](NS(=O)(=O)C(F)F)CN2C(c2nccs2)=N[C@H]1c1ccc(F)cc1Cl [Example 128] | > 7.00 | > 7.00
39 | CCOC(=O)C1=C2C[C@H](NS(=O)(=O)/C=C/F)CN2C(c2nccs2)=N[C@H]1c1ccc(F)cc1Cl [Example 129] | > 7.00 | > 7.00
40 | CCOC(=O)C1=C2C[C@H](N3CCOCC3)CN2C(c2nccs2)=N[C@H]1c1ccc(F)cc1Cl [Example 130] | > 7.00 | > 7.00
41 | CCOC(=O)C1=C2C[C@H](N3CCCC3C(=O)OC)CN2C(c2nccs2)=N[C@H]1c1ccc(F)cc1Cl (stereo partly shown) [Example 131] | 5.30 to 6.00 | 5.30 to 6.00
42 | CCOC(=O)C1=C2C[C@H](NS(=O)(=O)c3cnn(C)c3)CN2C(c2nccs2)=N[C@H]1c1ccc(F)cc1Cl [Example 132] | > 7.00 | > 7.00
43 | CCOC(=O)C1=C2C[C@H](NC(=O)C(F)F)CN2C(c2nccs2)=N[C@H]1c1ccc(F)cc1Cl [Example 133] | 6.30 to 7.00 | 6.30 to 7.00
44 | CCOC(=O)C1=C2CN(Cc3ccc(OC)cc3)S(=O)(=O)CN2C(c2nccs2)=N[C@H]1c1ccc(F)cc1Br [Example 134] | 5.30 to 6.00 | 5.30 to 6.00
